Test results as given in patent US5442064A, “Carboxylic acid derivatives, pharmaceutical compositions containing these compounds and processes for preparing them” (Dr. Karl Thomae GmbH, priority 1992, dated 1995).
Structures can show the parent of a compound that is named as a salt.

Tests used:
[1] = target: human thrombocytes; assay: Competitive binding of ^3 H-BIBU 52/test substance to human thrombocytes; settings: human thrombocytes in plasma; ^3 H-BIBU 52 5 nM; ambient temperature, 20 minutes
Protocol: 1. Competitive binding of ^3 H-BIBU 52/test substance to human thrombocytes: […] Case 5/1093-FL), which replaces the ^125 I fibrinogen ligand known from the literature and various concentrations of the substance to be tested. The free and bound ligand is separated by centrifuging and quantified by scintillation counting. The inhibition of ^3 H-BIBU 52 binding by the test substance is determined from the measurements obtained. In order to do this, donor blood is taken from an anticubital vein and anticoagulated with trisodium citrate (final concentration 13 mM). The blood is centrifuged for 10 minutes at 170×g and the supernatant platelet-rich plasma (PRP) is removed. The remaining blood is vigorously centrifuged once more in order to obtain plasma. The PRP is diluted 1:10 with autologous plasma. 750 μl are incubated with 50 μl of physiological saline solution, 100 μl of test substance solution, 50 μl of ^14 C-sucrose (3,700 Bq) and 50 μl of ^3 H-BIBU 52 (final concentration: 5 nM) at ambient temperature for 20 minutes. In order to measure the non-specific binding, 5μl of BIBU 52 (final concentration: 30 μM) are used instead of the test substance. The samples are centrifuged for 20 seconds at 10,000×g and the supernatant is poured off. 100 μl thereof are measured in order to determine the free ligand. The pellet is dissolved in 500 μl of 0.2N NaOH, 450 μl are mixed with 2 ml of scintillator and 25 μl of 5N HCl and measured. The residual plasma remaining in the pellet is determined from the ^14 C-content and the bound ligand is determined from the ^3 H-measurement. After the non-specific binding has been deducted, the pellet activity is plotted against the concentration of the test substance and the concentration for 50% inhibition of binding is determined. 2. Antithrombotic activity

[2] = tested on: platelet aggregation; assay: Inhibition of platelet aggregation (collagen-induced, Born and Cross, platelet-rich plasma of healthy volunteers); assay type: cell-based; settings: 10 minutes preincubation at 37° C
Protocol: In order to do this, donor blood is taken from an anticubital vein and anticoagulated with trisodium citrate (final concentration 13 mM). The blood is centrifuged for 10 minutes at 170×g and the supernatant platelet-rich plasma (PRP) is removed. The remaining blood is vigorously centrifuged once more in order to obtain plasma. The PRP is diluted 1:10 with autologous plasma. 750 μl are incubated with 50 μl of physiological saline solution, 100 μl of test substance solution, 50 μl of ^14 C-sucrose (3,700 Bq) and 50 μl of ^3 H-BIBU 52 (final concentration: 5 nM) at ambient temperature for 20 minutes. In order to measure the non-specific binding, 5μl of BIBU 52 (final concentration: 30 μM) are used instead of the test substance. The samples are centrifuged for 20 seconds at 10,000×g and the supernatant is poured off. 100 μl thereof are measured in order to determine the free ligand. The pellet is dissolved in 500 μl of 0.2N NaOH, 450 μl are mixed with 2 ml of scintillator and 25 μl of 5N HCl and measured. The residual plasma remaining in the pellet is determined from the ^14 C-content and the bound ligand is determined from the ^3 H-measurement. After the non-specific binding has been deducted, the pellet activity is plotted against the concentration of the test substance and the concentration for 50% inhibition of binding is determined. 2. Antithrombotic activity The thrombocyte aggregation is measured using the method of Born and Cross (J. Physiol. 170: 397 (1964)) in platelet-rich plasma taken from healthy volunteers. To inhibit coagulation the blood is mixed with 3.14% sodium citrate in a volume ratio of 1:10. The pattern of the decrease in optical density of the platelet suspension is photometrically measured and recorded after the addition of the aggregation-triggering substance. The rate of aggregation is determined from the angle of inclination of the density curve. The point on the curve where there is maximum light transmittance is used to calculate the optical density. The concentration of collagen used is as small as possible but sufficient to produce an irreversible reaction curve. Standard commercial collagen produced by Hormonchemie of Munich is used. Before the addition of the collagen the plasma is incubated for 10 minutes with the substance at 37° C. From the concentration/activity curve an EC50 is determined, which describes the concentration giving a 50% change in the optical density in terms of the inhibition of aggregation.

Compound	IC50 [1]	EC50 ([2]; Homo sapiens, Platelet)	EC50 ([2]; human platelet-rich plasma)
COC(=O)[C@H]1CC[C@H](N(C)C(=O)N2CCN(c3ccc(C(=N)N)cc3)CC2)CC1 [1(1), 1-(4-amidinophenyl)-4-[N-[trans-4-(methoxycarbonyl)-cyclohexyl]-N-methyl-aminocarbonyl]-piperazine-hydrochloride]	870 nM	110 nM	
COC(=O)[C@H]1CC[C@H](NC(=O)N2CCC(c3ccc(C(=N)N)cc3)CC2)CC1 [1(5), 4-(4-amidinophenyl)-1-[N-[trans-4-(methoxycarbonyl)-cyclohexyl]-aminocarbonyl]-piperidine-hydrochloride]	1200 nM	80 nM	
COC(=O)[C@H]1CC[C@H](N(C)C(=O)N2CCN(c3ccc(C(=N)N)cn3)CC2)CC1 [1(9), 1-(5-amidinopyrid-2-yl)-4-[N-[trans-4-(methoxycarbonyl)-cyclohexyl]-N-methyl-aminocarbonyl]-piperazine-hydrochloride]	17000 nM	90 nM	
COC(=O)CC1CCN(C(=O)N2CCN(c3ccc(C(=N)N)cc3)CC2)CC1 [1(25), 1-(4-amidinophenyl)-4-[4-(methoxycarbonylmethyl)-piperidinocarbonyl]-piperazine-hydrochloride]	30000 nM	6800 nM	
CN(C(=O)N1CCN(c2ccc(C(=N)N)cc2)CC1)[C@H]1CC[C@H](C(=O)O)CC1 [2(1), 1-(4-amidinophenyl)-4-[N-(trans-4-carboxycyclohexyl)-N-methyl-aminocarbonyl]-piperazine-dihydrochloride]	18 nM	40 nM	
N=C(N)c1ccc(N2CCC(C(=O)N[C@H]3CC[C@H](C(=O)O)CC3)CC2)nc1 [2(2), 1-(5-amidinopyrid-2-yl)-4-[N-(trans-4-carboxycyclohexyl)-aminocarbonyl]-piperidine-dihydrochloride]	47 nM	90 nM	
N=C(N)c1ccc(C2CCN(C(=O)N[C@H]3CC[C@H](C(=O)O)CC3)CC2)cc1 [2(3), 4-(4-amidinophenyl)-1-[N-(trans-4-carboxycyclohexyl)-aminocarbonyl]-piperidine-hydrochloride]	4.5 nM		30 nM
N=C(N)c1ccc(N2CCN(C(=O)N(Cc3ccccc3)[C@H]3CC[C@H](C(=O)O)CC3)CC2)cc1 [2(6), 1-(4-amidinophenyl)-4-[N-benzyl-N-(trans-4-carboxycyclohexyl)-aminocarbonyl]-piperazine-dihydrochloride]	1.5 nM	40 nM	
NCc1ccc(C2CCN(C(=O)N[C@H]3CC[C@H](C(=O)O)CC3)CC2)cc1 [2(11), 4-(4-aminomethylphenyl)-1-[N-(trans-4-carboxycyclohexyl)-aminocarbonyl]-piperidine-hydrochloride]	230 nM	380 nM	
N=C(N)c1ccc(N2CCN(C(=O)N3CCC(CC(=O)O)CC3)CC2)cc1 [2(17), 1-(4-amidinophenyl)-4-[4-(carboxymethyl)-piperidinocarbonyl]-piperazine-dihydrochloride]	44 nM	130 nM	
N=C(N)c1ccc(N2CCN(C(=O)N3CC=C(CC(=O)O)CC3)CC2)cc1 [2(19), 1-(4-amidinophenyl)-4-[4-(carboxymethyl)-3,4-dehydro-piperidinocarbonyl]-piperazine-dihydrochloride]	370 nM	620 nM	

Second part, led by results:

IC50 [1]	Compound	EC50 ([2]; Homo sapiens, Platelet)	EC50 ([2]; human platelet-rich plasma)
310 nM	NCc1ccc(N2CCN(C(=O)N[C@H]3CC[C@H](C(=O)O)CC3)CC2)nc1 [2(22), 1-(5-aminomethylpyrid-2-yl)-4-[N-(trans-4-carboxycyclohexyl)-aminocarbonyl]-piperazine-dihydrochloride]	680 nM	
100 nM	N=C(N)c1ccc(N2CCC(C(=O)N3CCC(CC(=O)O)CC3)CC2)nc1 [2(42), 1-(5-amidinopyrid-2-yl)-4-[4-(carboxymethyl)-piperidinocarbonyl]-piperidine-dihydrochloride]	170 nM	
230 nM	N=C(NC(=O)OCc1ccccc1)c1ccc(N2CCN(C(=O)N[C@H]3CC[C@H](C(=O)O)CC3)CC2)cc1 [3(1), 1-[4-(N-benzyloxycarbonyl-amidino)-phenyl]-4-[N-(trans-4-carboxycyclohexyl)-aminocarbonyl]-piperazine]	660 nM	
14 nM	N=C(N)c1ccc(C2CCN(C(=O)N[C@H]3CC[C@H](C(=O)O)CC3)CC2)cc1 [3(2), 4-(4-amidinophenyl)-1-[N-(trans-4-carboxycyclohexyl)-aminocarbonyl]-piperidine]		100 nM
78 nM	N=C(N)c1ccc(N2CCC(C(=O)N3CCC(CC(=O)O)CC3)CC2)cc1 [3(4), 1-(4-amidinophenyl)-4-[4-(carboxymethyl)-piperidino-carbonyl]-piperidine]	100 nM	
180 nM	N=C(N)c1ccc(N2CCC(CC(=O)NCCC(=O)O)CC2)cc1 [3(12), 1-(4-amidinophenyl) -4-[N-(2-carboxyethyl)-amino-carbonylmethyl]-piperidine]	290 nM	
5.7 nM	N=C(N)c1ccc(N2CCC(C(=O)N[C@H]3CC[C@H](C(=O)O)CC3)CC2)cc1 [3(15), 1-(4-amidinophenyl)-4-[N-(trans-4-carboxycyclo-hexyl)-aminocarbonyl]-piperidine]	30 nM	
74 nM	NCc1ccc(N2CCC(C(=O)N[C@H]3CC[C@H](C(=O)O)CC3)CC2)cc1 [3(17), 1-(4-aminomethylphenyl)-4-[N-(trans-4-carboxycyclo-hexyl)-aminocarbonyl]-piperidine-hydrochloride]	180 nM	
9.1 nM	N=C(N)c1ccc(N2CCC(C(=O)N(CCc3ccccc3)[C@H]3CC[C@H](C(=O)O)CC3)CC2)cc1 [3(24), 1-(4-amidinophenyl)-4-[N-(trans-4-carboxycyclohexyl)-N-(2-phenylethyl)-aminocarbonyl]-piperidine]	110 nM	
4 nM	N=C(N)c1ccc(N2CCC(C(=O)N(CCCc3ccccc3)[C@H]3CC[C@H](C(=O)O)CC3)CC2)cc1 [3(25), 1-(4-amidinophenyl)-4-[N-(trans-4-carboxycyclohexyl)-N-(3-phenylpropyl)-aminocarbonyl]-piperidine]	52 nM	
12 nM	CCCCCN(C(=O)C1CCN(c2ccc(C(=N)N)cc2)CC1)[C@H]1CC[C@H](C(=O)O)CC1 [3(26), 1-(4-amidinophenyl)-4-[N-(trans-4-carboxycyclohexyl)-N-(n-pentyl)-aminocarbonyl]-piperidine]	65 nM	
2100 nM	CN(C(=O)N1CCN(c2ccc(C(=N)N)cc2)CC1)[C@H]1CC[C@H](C(=O)OC2CCCCC2)CC1 [7(2), 1-(4-amidinophenyl)-4-[N-[trans-4-(cyclohexyloxy-carbonyl)-cyclohexyl]-N-methyl-aminocarbonyl]-piperazine-dihydrochloride]	360 nM	
5300 nM	COC(=O)[C@H]1CC[C@H](NC(=O)N2CCN(c3ccc(CN)cc3)CC2)CC1 [Example 4, 1-(4-Aminomethylphenyl)-4-[N-[trans-4-(methoxycarbonyl)-cyclohexyl]-aminocarbonyl]-piperazine-hydrochloride]	4300 nM	
1200 nM	CC(C)OC(=O)[C@H]1CC[C@H](NC(=O)N2CCN(c3ccc(C(=N)N)cc3)CC2)CC1 [Example 7, 1-(4-Amidinophenyl)-4-[N-[trans-4-(isopropoxycarbonyl)-cyclohexyl]-aminocarbonyl]-piperazine-dihydrochloride]	280 nM	
